Calls of active or inactive are those of the source. No cut-off for these calls is given here.
Experiments:
[1] = tested on: Rattus norvegicus; experiment: Cardiovascular response in conscious hypertensive rats after administration of compound expressed as percent reduction in heart rate; NA= No activity; format: functional, organism-based
[2] = tested on: Rattus norvegicus; experiment: Antiallergic activity of compound (10mg/Kg, iv) was assessed by the inhibition of passive paw anaphylaxis in rats; NA= No activity; format: functional, organism-based
[3] = species: Mus musculus; experiment: Effective peroral dose hypothermic activity in mice; format: functional; settings: po
[4] = species: Mus musculus; experiment: Effective peroral dose for muscle relaxation in mice; format: functional; settings: po
[5] = tested on: Rattus norvegicus; experiment: Antiinflammatory activity of compound (100 mg/kg) was assessed by inhibition of carrageenan-induced edema in rats; NA= No activity; format: functional, organism-based
[6] = tested on: Rattus norvegicus; experiment: Cardiovascular response in conscious hypertensive rats after administration of compound expressed as percent reduction in blood pressure; NA= No activity; format: functional, organism-based
[7] = tested on: Rattus norvegicus; experiment: Antiallergic activity of 10 mg/kg intravenous dose of compound was assessed by the inhibition of passive paw anaphylaxis in rats; format: functional
[8] = tested on: Rattus norvegicus; experiment: Antiinflammatory activity of 50mg/Kg, po compound was assessed by inhibition of carrageenan-induced edema in rats; no activity; format: functional
[9] = tested on: Rattus norvegicus; experiment: Antiallergic activity of compound (10 mg/kg, iv) was assessed by the inhibition of passive paw anaphylaxis in rats; NA= No activity; format: functional, organism-based
[10] = tested on: Rattus norvegicus; experiment: Antiallergic activity of 10 mg/kg intravenous dose of compound was assessed by the inhibition of passive paw anaphylaxis in rats; NA= No activity; format: functional, organism-based; set-up: dose 10 mg/kg; settings: at 10 mg/kg
[11] = tested on: Rattus norvegicus; experiment: Cardiovascular response in conscious hypertensive rats after administration of compound expressed as percent reduction in heart rate; format: functional
[12] = tested on: Rattus norvegicus; experiment: Cardiovascular response in conscious hypertensive rats after administration of compound expressed as percent reduction in blood pressure; format: functional
[13] = tested on: Rattus norvegicus; experiment: Antiinflammatory activity of 100mg/Kg, po compound was assessed by inhibition of carrageenan-induced edema in rats; NA= No activity; format: functional, organism-based
[14] = species: Mus musculus; experiment: Effective peroral dose hypothermic activity in mice; 7.5-20.7; format: functional; settings: po
[15] = tested on: Rattus norvegicus; experiment: Antiallergic activity of compound (10 mg/kg, iv) was assessed by the inhibition of passive paw anaphylaxis in rats; format: functional
[16] = tested on: Rattus norvegicus; experiment: Antiinflammatory activity of compound (50 mg/kg) was assessed by inhibition of carrageenan-induced edema in rats; format: functional
[17] = species: Mus musculus; experiment: Effective peroral dose for muscle relaxation in mice; 8.6-27.1; format: functional; settings: po
[18] = tested on: Rattus norvegicus; experiment: Antiinflammatory activity of compound (20 mg/kg) was assessed by inhibition of carrageenan-induced edema in rats; format: functional
[19] = tested on: Rattus norvegicus; experiment: Antiinflammatory activity of 25mg/Kg, po compound was assessed by inhibition of carrageenan-induced edema in rats; NA= No activity; format: functional, organism-based
[20] = species: Mus musculus; experiment: Effective peroral dose hypothermic activity in mice; 16.6-26.9; format: functional; settings: po
[21] = species: Mus musculus; experiment: Effective peroral dose for muscle relaxation in mice; 24.7-35.2; format: functional; settings: po
[22] = species: Mus musculus; experiment: Effective peroral dose hypothermic activity in mice; 6.3-18.7; format: functional; settings: po
[23] = tested on: Rattus norvegicus; experiment: Antiinflammatory activity of compound (25 mg/kg) was assessed by inhibition of carrageenan-induced edema in rats
[24] = species: Mus musculus; experiment: Effective peroral dose for muscle relaxation in mice; 7.7-16.3; format: functional; settings: po
[25] = tested on: Rattus norvegicus; experiment: Antiinflammatory activity of compound (25 mg/kg) was assessed by inhibition of carrageenan-induced edema in rats; format: functional
[26] = species: Mus musculus; experiment: Effective peroral dose for muscle relaxation in mice; 9.9-39.2; format: functional; settings: po
[27] = species: Mus musculus; experiment: Effective peroral dose hypothermic activity in mice; 2.2-71.9; format: functional; settings: po

SMILES: Cn1c(=O)[nH]c2c(ncn2C2O[C@H](CO)[C@@H](O)[C@@H]2O)c1=N (some centres not stated)
- HR [1]: inactive
- inhibition [2]: inactive
- ED50 [3]: > 100 mg/kg
- ED50 [4]: > 100 mg/kg
- inhibition [5]: inactive
- BP [6]: Not significant

SMILES: Cn1c(=N)c2ncn3c2n(c1=O)C[C@H]1OC3[C@H](O)[C@@H]1O.I
- HR [1]: inactive
- ED50 [3]: > 100 mg/kg
- ED50 [4]: > 100 mg/kg
- inhibition in vivo at 10 mg/kg [7]: 45%
- inhibition in vivo at 50 mg/kg [8]: 21%
- BP [6]: Not significant

SMILES: Cn1c(=O)[nH]c2c(ncn2COCCO)c1=N
- HR [1]: inactive
- inhibition [2]: inactive
- ED50 [3]: > 100 mg/kg
- ED50 [4]: > 100 mg/kg
- inhibition [5]: inactive
- BP [6]: Not significant

SMILES: Cn1c(=O)[nH]c2c(nc(Br)n2C2O[C@H](CO)[C@@H](O)[C@H]2O)c1=N (some centres not stated)
- HR [1]: inactive
- ED50 [3]: > 100 mg/kg
- ED50 [4]: > 100 mg/kg
- inhibition [5]: inactive
- inhibition [9]: inactive
- BP [6]: Not significant

SMILES: Cn1c(=O)[nH]c2c(nc(NN)n2C2O[C@H](CO)[C@@H](O)[C@H]2O)c1=N (some centres not stated)
- inhibition [10]: inactive
- ED50 [3]: > 100 mg/kg
- ED50 [4]: > 100 mg/kg
- HR [11]: -21%
- BP [12]: -13%
- inhibition [13]: inactive

SMILES: Cn1c(=O)[nH]c2c(nc(N)n2C2O[C@H](CO)[C@@H](O)[C@H]2O)c1=N (some centres not stated)
- inhibition [10]: inactive
- ED50 [3]: > 100 mg/kg
- ED50 [4]: > 100 mg/kg
- HR [11]: -20%
- BP [12]: -10%
- inhibition [13]: inactive

SMILES: Nc1nc(=O)[nH]c2c1ncn2[C@@H]1O[C@H](CO)[C@@H](O)[C@H]1O [ISOGUANOSINE]
- ED50 [3]: > 100 mg/kg
- ED50 [4]: > 100 mg/kg
- inhibition [13]: inactive

SMILES: Cn1c(N)c2nc([C@@H]3O[C@H](CO)[C@@H](O)[C@H]3O)nc-2[nH]c1=O
- inhibition [10]: inactive
- HR [1]: inactive
- ED50 [3]: > 100 mg/kg
- ED50 [4]: > 100 mg/kg
- BP [12]: -9%
- inhibition [13]: inactive

SMILES: COc1nc(N)c2ncn([C@@H]3O[C@H](CO)[C@@H](O)[C@H]3O)c2n1 [BVT.115959]
- ED50 [14]: 12.5 mg/kg
- Inhibition [15]: 56%
- Inhibition [16]: 57%
- HR [11]: -25%
- ED50 [17]: 15.3 mg/kg
- Inhibition [18]: 25%
- BP [12]: -41%

SMILES: Cn1c(=O)[nH]c2c(ncn2C2O[C@@H]3COP(=O)(O)O[C@@H]3[C@@H]2O)c1=N (some centres not stated)
- inhibition in vivo at 10 mg/kg [7]: 14%
- HR [11]: -37%
- inhibition [19]: inactive
- ED50 [20]: 21.2 mg/kg
- ED50 [21]: 29.5 mg/kg
- BP [12]: -17%

SMILES: Cn1c(=O)[nH]c2c(ncn2C2O[C@H](CO)[C@@H](O)[C@H]2O)c1=N (some centres not stated)
- ED50 [22]: 10.9 mg/kg
- Inhibition [15]: 55%
- Inhibition [23]: 62%
- HR [11]: -36%
- ED50 [24]: 11.2 mg/kg
- BP [12]: -32%

SMILES: CCn1c(=O)[nH]c2c(ncn2C2O[C@H](CO)[C@@H](O)[C@H]2O)c1=N (some centres not stated)
- ED50 [3]: > 100 mg/kg
- Inhibition [15]: 40%
- ED50 [4]: > 100 mg/kg
- Inhibition [16]: 17%
- HR [11]: -27%
- BP [12]: -18%

SMILES: N=c1c2ncn(C3O[C@H](CO)[C@@H](O)[C@H]3O)c2[nH]c(=O)n1-c1ccccc1 (some centres not stated)
- HR [1]: inactive
- ED50 [3]: > 100 mg/kg
- ED50 [4]: > 100 mg/kg
- inhibition in vivo at 10 mg/kg [7]: 30%
- inhibition [13]: inactive
- BP [6]: Not significant

SMILES: Cn1c(=O)[nH]c2c(ncn2C2O[C@H](COP(=O)(O)O)[C@@H](O)[C@H]2O)c1=N (some centres not stated)
- Inhibition [25]: 46%
- ED50 [26]: 19.7 mg/kg
- Inhibition [15]: 57%
- HR [11]: -48%
- ED50 [27]: 12.6 mg/kg
- BP [12]: -44%

SMILES: CCCCn1c(=O)[nH]c2c(ncn2C2O[C@H](CO)[C@@H](O)[C@H]2O)c1=N (some centres not stated)
- ED50 [3]: > 100 mg/kg
- ED50 [4]: > 100 mg/kg
- inhibition in vivo at 10 mg/kg [7]: 35%
- HR [11]: -16%
- BP [12]: -7%
- inhibition [13]: inactive

SMILES: Cn1c(=O)[nH]c2c(ncn2C2O[C@H](CI)[C@@H](O)[C@H]2O)c1=N (some centres not stated)
- HR [1]: inactive
- ED50 [3]: > 100 mg/kg
- Inhibition [15]: 14%
- ED50 [4]: > 100 mg/kg
- inhibition [5]: inactive
- BP [6]: Not significant

SMILES: CCCCCCCCn1c(=O)[nH]c2c(ncn2C2O[C@H](CO)[C@@H](O)[C@H]2O)c1=N (some centres not stated)
- HR [1]: inactive
- ED50 [3]: > 100 mg/kg
- Inhibition [15]: 14%
- ED50 [4]: > 100 mg/kg
- inhibition [5]: inactive
- BP [6]: Not significant

SMILES: Cn1c(=O)[nH]c2c(ncn2C2O[C@H](CO)[C@@H](O)[C@H]2O)c1=O (some centres not stated)
- inhibition [10]: inactive
- HR [1]: inactive
- ED50 [3]: > 100 mg/kg
- ED50 [4]: > 100 mg/kg
- inhibition [13]: inactive
- BP [6]: Not significant

SMILES: C[C@H]1OC(n2cnc3c(=N)n(C)c(=O)[nH]c32)[C@H](O)[C@@H]1O (some centres not stated)
- inhibition [10]: inactive
- HR [1]: inactive
- ED50 [3]: > 100 mg/kg
- ED50 [4]: > 100 mg/kg
- inhibition [13]: inactive
- BP [6]: Not significant
